Measured values reported in patent US20120309750A1, “5-MEMBERED HETEROCYCLE DERIVATIVES AND MANUFACTURING PROCESS THEREOF” (ILDONG PHARM CO., LTD., priority 2010, published 2012).

Experiments:
[1] = tested on: A2780 Human ovarian cancer cells; experiment: In vivo antitumor efficacy, A2780 subcutaneous xenograft; conditions: 200 mg/kg po qdx5, 2 weeks, A2780 xenograft in female Balb/c nude mice
Method: A2780 Human ovarian cancer cells were established as subcutaneous xenografts by injection of 8×10^6 cells into the flanks of adult female Balb/c nude mice. Mice with established tumors (50-200 mm^3) were selected for study (n=3-6/treatment group). The test compounds were formulated in ethanol-PEG400-DW and administered orally (po) at a dose of 200 mg/kg. The vehicle alone was administered to control groups. Animals were dosed 5 days per week (Monday through Friday) for 2 consecutive weeks. Animals were weighed and tumor size was determined twice weekly by caliper measurements, and tumor volumes were calculated (volume=[l×w^2]/2(mm^3), where l and w refer to the larger and smaller dimensions collected at each measurement). The mean tumor volumes of each group were calculated. The change in mean treated tumor volume was divided by the change in mean control tumor volume, multiplied by 100 and subtracted from 100% to give the tumor growth inhibition for each group.

yeast HSP90 = yeast HSP90 (Saccharomyces cerevisiae, UniProt P02829); experiment: Hsp90 ATPase assay (malachite green); type: biochemical
Method: (§1) For present invention, the ATPase activity of yeast HSP90 was measured using malachite green assay. Formula I compounds for primary antitumoral activity were treated in human colorectal cancer cells (HCT116) showing increased expression levels of HSP90 client protein and cotoxicity IC50 values was measured as a result.

[2] = tested on: human colorectal cancer cells (HCT116); experiment: Growth inhibition assay (cytotoxicity) in HCT116; type: cell-based; conditions: HCT-116
Method: as §1

[3] = Mouse pharmacokinetics of prodrug after oral gavage; type: in vivo, Balb/c male mice; conditions: single PO dose 100 mg/kg
Method: Pharmacokinetics test was carried out in order to confirm the change from invented prodrugs to parent compounds in vivo. Balb/c male mice are dosed with a prodrug by oral gavages. A single administration of a prodrug is given and a dose volume of 10 mL/kg is used for PO doses.
Blood samples are collected in lithium heparin coated tubes at 10, 20, 30, 60, 120 min. Plasma is isolated by centrifugation and frozen before analysis. Plasma samples are prepared by liquid-liquid extraction with Ethyl acetate containing internal standard. Quantification is by using a LC-MS/MS method specific to the selected compound. Animals that had been dosed the selected compound were analyzed for prodrug and the parent compound. Pharmacokinetics parameters are calculated using WinNonLinnon compartmental analysis software.

Chain of yeast HSP90 (P02829 whole entry): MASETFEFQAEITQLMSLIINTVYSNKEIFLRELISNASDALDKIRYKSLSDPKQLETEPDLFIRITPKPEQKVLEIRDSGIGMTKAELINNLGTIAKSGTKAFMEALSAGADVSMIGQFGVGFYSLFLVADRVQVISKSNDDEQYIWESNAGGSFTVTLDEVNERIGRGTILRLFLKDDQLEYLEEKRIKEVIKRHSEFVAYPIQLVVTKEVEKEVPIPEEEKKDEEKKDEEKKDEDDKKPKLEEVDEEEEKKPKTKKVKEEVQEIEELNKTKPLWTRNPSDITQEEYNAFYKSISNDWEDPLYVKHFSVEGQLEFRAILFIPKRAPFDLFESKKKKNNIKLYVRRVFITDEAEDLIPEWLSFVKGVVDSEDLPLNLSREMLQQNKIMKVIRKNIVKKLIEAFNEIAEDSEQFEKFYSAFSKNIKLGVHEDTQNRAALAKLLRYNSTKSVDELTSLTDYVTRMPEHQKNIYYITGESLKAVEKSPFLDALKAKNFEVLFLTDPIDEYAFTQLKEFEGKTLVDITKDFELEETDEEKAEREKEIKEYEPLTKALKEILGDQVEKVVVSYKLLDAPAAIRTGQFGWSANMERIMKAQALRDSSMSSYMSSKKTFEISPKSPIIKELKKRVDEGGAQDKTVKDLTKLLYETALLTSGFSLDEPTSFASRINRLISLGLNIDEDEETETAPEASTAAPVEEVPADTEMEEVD

| Compound | % TGI [1] | IC50 (yeast HSP90) | IC50 [2] | exposure of the active pharmaceutical agent (I-97) relative to the starting dose [3] |
| --- | --- | --- | --- | --- |
| CCNC(=O)c1noc(-c2cc(C(C)C)c(O)cc2O)c1-c1noc(C)n1 [Compound I-60, 5-(2,4-Dihydroxy-5-isopropylphenyl)-N-ethyl-4-(5-methyl-1,2,4-oxadiazol-3-yl) isoxazole-3-carboxamide] | 50% | < 500 nM | < 500 nM | – |
| CCNC(=O)c1noc(-c2cc(C(C)C)c(OC(=O)[C@@H]3CCCN3C(=O)OC(C)(C)C)cc2OC(=O)C2CCCN2C(=O)OC(C)(C)C)c1-c1ccn(C)n1 (stereo partly drawn) [II-8, (2S,2′S)-1-tert-Butyl^′2,2-4-(3-(ethylcarbamoyl)-4-(1-methyl-1H-pyrazol-3-yl)isoxazol-5-yl)-6-isopropyl-1,3-phenylene dipyrrolidine-1,2-dicarboxylate] | – | – | – | optimal exposure |
| CCNC(=O)c1noc(-c2cc(C(C)C)c(O)cc2O)c1-c1cc(CNCCO)no1 [Compound I-22, 5-(2,4-Dihydroxy-5-isopropylphenyl)-N-ethyl-3′-((2-hydroxyethylamino)methyl)-4,5′-biisoxazole-3-carboxamide] | – | 500 to 1000 nM | < 500 nM | – |
| CCNC(=O)c1noc(-c2cc(C(C)C)c(O)cc2O)c1-c1cc(C(N)=O)no1 [Compound I-21, 5-(2,4-Dihydroxy-5-isopropylphenyl)-N^3-ethyl-4,5′-biisoxazole-3,3′-dicarboxamide] | – | 500 to 1000 nM | < 500 nM | – |
| CCNC(=O)c1noc(-c2cc(C(C)C)c(O)cc2O)c1C1CC(CO)=NO1 (centres unmarked) [Compound I-9, 5-(2,4-Dihydroxy-5-isopropylphenyl)-N-ethyl-4-(3-(hydroxymethyl)-4,5-dihydroisoxazol-5-yl)isoxazole-3-carboxamide] | – | 500 to 1000 nM | < 500 nM | – |
| CCNC(=O)c1noc(-c2cc(C(C)C)c(O)cc2O)c1-c1cc(CN)no1 [Compound I-30, 3′-(Aminomethyl)-5-(2,4-dihydroxy-5-isopropylphenyl)-N-ethyl-4,5′-biisoxazole-3-carboxamide] | – | 500 to 1000 nM | < 500 nM | – |
| CCNC(=O)c1noc(-c2cc(C(C)C)c(O)cc2O)c1-c1cc(C)no1 [Compound I-37, 5-(2,4-Dihydroxy-5-isopropylphenyl)-N-ethyl-3′-methyl-4,5′-biisoxazole-3-carboxamide] | – | < 500 nM | < 500 nM | – |
| CCNC(=O)c1noc(-c2cc(C(C)C)c(O)cc2O)c1-c1noc(N(CC)CC)n1 [Compound I-76, 4-(5-(Diethylamino)-1,2,4-oxadiazol-3-yl)-5-(2,4-dihydroxy-5-isopropylphenyl)-N-ethylisoxazole-3-carboxamide] | – | < 500 nM | < 500 nM | – |
| CCNC(=O)c1noc(-c2cc(C(C)C)c(O)cc2O)c1-c1noc(COC)n1 [Compound I-75, 5-(2,4-Dihydroxy-5-isopropylphenyl)-N-ethyl-4-(5-(methoxymethyl)-1,2,4-oxadiazol-3-yl)isoxazole-3-carboxamide] | – | < 500 nM | < 500 nM | – |
| CC(C)c1cc(-c2onc(Cn3ccnn3)c2-c2ccsc2)c(O)cc1O [Compound I-5, 4-(3-((1H-1,2,3-Triazol-1-yl)methyl)-4-(thiophen-3-yl)isoxazol-5-yl)-6-isopro pylbenzene-1,3-diol] | – | > 1000 nM | < 500 nM | – |
